In patent publication US10508104B2, “6-hydroxy-5-(phenyl/heteroarylsulfonyl)pyrimidin-4(1H)-one as APJ agonists” (Bristol-Myers Squibb Company, priority 2016, dated 2019):
Like-named read-outs stand apart in the source and are kept apart here.

Target: human APJ receptor (Homo sapiens (Human), UniProt P35414)
Experiment: Intracellular cAMP accumulation assay (APJ hcAMP, HTRF)
Format: cell-based
Conditions: read-out: Human APJ cAMP EC50 Potency range
Method in brief: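 HEK293 cells stably expressing human APJ, 5,000 per well, incubated 30 min at rt with compound, […] and 2 μM forskolin. cAMP measured by HTRF against a cAMP standard curve as inhibition of forskolin-driven production. EC50 from variable-slope sigmoidal fit.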

[1] = human APJ, intracellular cAMP accumulation
[2] = HEK293 cells stably expressing human APJ receptor, inhibition of forskolin-mediated cAMP production

human APJ receptor, sequence (P35414 whole entry): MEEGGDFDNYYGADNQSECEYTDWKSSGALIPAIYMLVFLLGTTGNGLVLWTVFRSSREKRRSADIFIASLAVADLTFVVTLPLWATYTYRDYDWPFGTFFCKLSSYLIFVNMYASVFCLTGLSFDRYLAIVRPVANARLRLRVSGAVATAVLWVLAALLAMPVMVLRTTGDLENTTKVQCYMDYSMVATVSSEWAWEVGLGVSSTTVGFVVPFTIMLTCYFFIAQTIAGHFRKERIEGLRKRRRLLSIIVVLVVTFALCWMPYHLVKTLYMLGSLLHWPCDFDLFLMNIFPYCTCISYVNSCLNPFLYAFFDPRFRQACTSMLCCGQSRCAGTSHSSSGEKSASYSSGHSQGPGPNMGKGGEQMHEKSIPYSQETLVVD

Structure (SMILES): CCCCc1nc(=O)c(S(=O)(=O)c2ccc(-c3ccc(F)cc3)c(F)c2)c(O)n1-c1c(OC)cccc1OC [Example 68, 2-butyl-1-(2,6-dimethoxyphenyl)-5-[3-fluoro-4-(4-fluorophenyl)benzene-sulfonyl]-6-hydroxy-1,4-dihydropyrimidin-4-one]
- EC50 [1]: 0.01 to 10 nM

Structure (SMILES): CCCCc1nc(=O)c(S(=O)(=O)c2ccc(-c3ccnc(F)c3C)c(F)c2)c(O)n1-c1c(OC)cccc1OC [Example 69, 2-butyl-1-(2,6-dimethoxyphenyl)-5-[3-fluoro-4-(2-fluoro-3-methylpyridin-4-yl)benzenesulfonyl]-6-hydroxy-1,4-dihydropyrimidin-4-one]
- EC50 [1]: 0.01 to 10 nM

Structure (SMILES): CCCCc1nc(=O)c(S(=O)(=O)c2ccc(-c3ccc(F)nc3)c(F)c2)c(O)n1-c1c(OC)cccc1OC [Example 70, 2-butyl-1-(2,6-dimethoxyphenyl)-5-[3-fluoro-4-(6-fluoropyridin-3-yl)benzenesulfonyl]-6-hydroxy-1,4-dihydropyrimidin-4-one]
- EC50 [1]: 0.01 to 10 nM

Structure (SMILES): CCCCc1nc(=O)c(S(=O)(=O)c2ccc(-n3cc(Cl)ccc3=O)cc2)c(O)n1-c1c(OC)cccc1OC [Example 71, 2-Butyl-5-((4-(5-chloro-2-oxopyridin-1 (2H)-yl)phenyl)sulfonyl)-1-(2,6-dimethoxyphenyl)-6-hydroxypyrimidin-4(1H)-one]
- EC50 [2]: 0.01 to 10 nM

Structure (SMILES): CCCCc1nc(=O)c(S(=O)(=O)c2ccc(-n3ccccc3=O)cc2)c(O)n1-c1c(OC)cccc1OC [Example 72, 2-butyl-1-(2,6-dimethoxyphenyl)-6-hydroxy-5-[4-(2-oxo-1,2-dihydropyridin-1-yl)benzenesulfonyl]-1,4-dihydropyrimidin-4-one]
- EC50 [1]: 0.01 to 10 nM

Structure (SMILES): COc1cccc(OC)c1-n1c(CCC(C)C)nc(=O)c(S(=O)(=O)c2ccc(-n3ccccc3=O)cc2)c1O [Example 73, 1-(2,6-dimethoxyphenyl)-6-hydroxy-2-(3-methylbutyl)-5-[4-(2-oxo-1,2-dihydropyridin-1-yl)benzenesulfonyl]-1,4-dihydropyrimidin-4-one]
- EC50 [1]: 0.01 to 10 nM

Structure (SMILES): CCCCc1nc(=O)c(S(=O)(=O)c2ccc(-n3ccc(C)cc3=O)cc2)c(O)n1-c1c(OC)cccc1OC [Example 74, 2-butyl-1-(2,6-dimethoxyphenyl)-6-hydroxy-5-[4-(4-methyl-2-oxo-1,2-dihydropyridin-1-yl)benzenesulfonyl]-1,4-dihydropyrimidin-4-one]
- EC50 [1]: 0.01 to 10 nM

Structure (SMILES): CCCCc1nc(=O)c(S(=O)(=O)c2ccc(-n3cc(F)ccc3=O)cc2)c(O)n1-c1c(OC)cccc1OC [Example 75, 2-butyl-1-(2,6-dimethoxyphenyl)-5-[4-(5-fluoro-2-oxo-1,2-dihydropyridin-1-yl)benzenesulfonyl]-6-hydroxy-1,4-dihydropyrimidin-4-one]
- EC50 [1]: 0.01 to 10 nM

Structure (SMILES): CCCCc1nc(=O)c(S(=O)(=O)c2ccc(-n3cc(C)ccc3=O)cc2)c(O)n1-c1c(OC)cccc1OC [Example 76, 2-butyl-1-(2,6-dimethoxyphenyl)-6-hydroxy-5-[4-(5-methyl-2-oxo-1,2-dihydropyridin-1-yl)benzenesulfonyl]-1,4-dihydropyrimidin-4-one]
- EC50 [1]: 0.01 to 10 nM

Structure (SMILES): CCCCc1nc(=O)c(S(=O)(=O)c2ccc(-n3cc(Cl)ccc3=O)cc2)c(O)n1-c1c(CC)cccc1CC [Example 77, 2-butyl-5-[4-(5-chloro-2-oxo-1,2-dihydropyridin-1-yl)benzenesulfonyl]-1-(2,6-diethylphenyl)-6-hydroxy-1,4-dihydropyrimidin-4-one]
- EC50 [1]: 0.01 to 10 nM

Structure (SMILES): CCCCc1nc(=O)c(S(=O)(=O)c2ccc(-n3cc(C)ccc3=O)cc2)c(O)n1-c1c(CC)cccc1CC [Example 78, 2-butyl-1-(2,6-diethylphenyl)-6-hydroxy-5-[4-(5-methyl-2-oxo-1,2-dihydropyridin-1-yl)benzenesulfonyl]-1,4-dihydropyrimidin-4-one]
- EC50 [1]: 0.01 to 10 nM

Structure (SMILES): CCCCc1nc(=O)c(S(=O)(=O)c2ccc(-c3nccn3C)cc2)c(O)n1-c1c(OC)cccc1OC [Example 79, 2-Butyl-1-(2,6-dimethoxyphenyl)-6-hydroxy-5-((4-(1-methyl-1H-imidazol-2-yl)phenyl)sulfonyl)pyrimidin-4(1H)-one]
- EC50 [2]: 0.01 to 10 nM

Structure (SMILES): CCCCc1nc(=O)c(S(=O)(=O)c2ccc(-c3ncn(C)n3)cc2)c(O)n1-c1c(OC)cccc1OC [Example 80, 2-butyl-1-(2,6-dimethoxyphenyl)-6-hydroxy-5-[4-(1-methyl-1H-1,2,4-triazol-3-yl)benzenesulfonyl]-1,4-dihydropyrimidin-4-one]
- EC50 [1]: 0.01 to 10 nM

Structure (SMILES): CCCCc1nc(=O)c(S(=O)(=O)c2ccc(-c3cccs3)cc2)c(O)n1-c1c(OC)cccc1OC [Example 81, 2-butyl-1-(2,6-dimethoxyphenyl)-6-hydroxy-5-[4-(thiophen-2-yl)benzenesulfonyl]-1,4-dihydropyrimidin-4-one]
- EC50 [1]: 0.01 to 10 nM

Structure (SMILES): CCCCc1nc(=O)c(S(=O)(=O)c2ccc(-c3c(C)nnn3C)cc2)c(O)n1-c1c(OC)cccc1OC [Example 82, 2-butyl-1-(2,6-dimethoxyphenyl)-5-[4-(dimethyl-1H-1,2,3-triazol-5-yl)benzenesulfonyl]-6-hydroxy-1,4-dihydropyrimidin-4-one]
- EC50 [1]: 0.01 to 10 nM

Structure (SMILES): CCCCc1nc(=O)c(S(=O)(=O)c2ccc(-c3nc(C(=O)OCC)co3)cc2)c(O)n1-c1c(OC)cccc1OC [Example 83, ethyl 2-(4-{[2-butyl-1-(2,6-dimethoxyphenyl)-6-hydroxy-4-oxo-1,4-dihydropyrimidin-5-yl]sulfonyl}phenyl)-1,3-oxazole-4-carboxylate]
- EC50 [1]: 0.01 to 10 nM

Structure (SMILES): CCCCc1nc(=O)c(S(=O)(=O)c2ccc(-c3nc(C(=O)OC)c(C)s3)cc2)c(O)n1-c1c(OC)cccc1OC [Example 84, methyl 2-(4-{[2-butyl-1-(2,6-dimethoxyphenyl)-6-hydroxy-4-oxo-1,4-dihydropyrimidin-5-yl]sulfonyl}phenyl)-5-methyl-1,3-thiazole-4-carboxylate]
- EC50 [1]: 0.01 to 10 nM

Structure (SMILES): CCCCc1nc(=O)c(S(=O)(=O)c2ccc(C3CC3)cc2)c(O)n1-c1c(OC)cccc1OC [Example 85, 2-Butyl-5-((4-cyclopropylphenyl)sulfonyl)-1-(2,6-dimethoxyphenyl)-6-hydroxypyrimidin-4(1H)-one]
- EC50 [2]: 0.01 to 10 nM

Structure (SMILES): COc1cccc(OC)c1-n1c(C2CCCC2)nc(=O)c(S(=O)(=O)c2ccc(C3CC3)cc2)c1O [Example 86, 2-cyclopentyl-5-(4-cyclopropylbenzene-sulfonyl)-1-(2,6-dimethoxyphenyl)-6-hydroxy-1,4-dihydropyrimidin-4-one]
- EC50 [1]: 0.01 to 10 nM

Structure (SMILES): CCCCc1nc(=O)c(S(=O)(=O)c2ccc(C3CC3)cc2)c(O)n1-c1c(CC)cccc1CC [Example 87, 2-butyl-5-(4-cyclopropylbenzene-sulfonyl)-1-(2,6-diethylphenyl)-6-hydroxy-1,4-dihydropyrimidin-4-one]
- EC50 [1]: 0.01 to 10 nM

Structure (SMILES): CCOCc1nc(=O)c(S(=O)(=O)c2ccc(C3CC3)cc2)c(O)n1-c1c(CC)cccc1CC [Example 88, 5-(4-cyclopropylbenzene-sulfonyl)-1-(2,6-diethylphenyl)-2-(ethoxymethyl)-6-hydroxy-1,4-dihydropyrimidin-4-one]
- EC50 [1]: 0.01 to 10 nM

Structure (SMILES): CCCCc1nc(=O)c(S(=O)(=O)c2ccc(C(=O)O)cc2)c(O)n1-c1c(OC)cccc1OC [Example 89, 4-((2-Butyl-1-(2,6-dimethoxyphenyl)-6-hydroxy-4-oxo-1,4-dihydropyrimidin-5-yl)sulfonyl)benzoic Acid]
- EC50 [2]: 0.01 to 10 nM
